Structures are written as SMILES.

This data set in a line: Human HepG2 cell viability assay in 384 well format. Format: toxicity, cell-based. Further details: dose 125 nL, time 70.5 hour; cytotoxicity at 70.5 h: concentration not given beside the values. Particulars: HepG2 cells, read-out: Inhibition.
In the case of `COC(=O)Cn1c(=O)nc2n1C(=O)N(c1ccc(Cl)cc1)C2`, the cytotoxicity at 70.5 h stood at 8.74%. In the case of `COc1ccc(CNC(=O)CCN2C[C@@H](C)[C@](O)(C3CC3)C2)cc1` it was -4.82%. With `CC(C)N1CCOCC2(CN(Cc3ccccn3)CCO2)C1` (centres undefined) the figure was -2.31%; with `CCCOc1ccc2c(c1)OCC(C(=O)NC(C)Cn1ccnc1)=C2` (centres undefined), -6.31%. On to `Cn1ccnc1Sc1ccc(S(N)(=O)=O)cn1`, for which the cytotoxicity at 70.5 h was -5.03%.

Take `CCc1ccc(CN2CCN(C(=O)C(C)C)[C@@H]3CS(=O)(=O)C[C@@H]32)cc1`: the cytotoxicity at 70.5 h is 14.5%. Take `O=C(c1ccsc1)N1CCc2c(COCc3ccncc3)cncc2C1`: the cytotoxicity at 70.5 h was -9.93%. With `O=C(c1cc(F)ccc1O)N1CCN(C(=O)C2CCC2)CC1` the figure was -3.26%; with `CCCc1nc(CN2CCCC2Cn2cncn2)no1` (centres undefined), -6.08%. With `COc1cc(CNC(C)Cn2cccn2)cc(OC)c1OC` (centres undefined), the cytotoxicity at 70.5 h is -7.54%. `CCCC1CN(CC(C)C)C(=O)c2cccnc2O1` (centres undefined): the cytotoxicity at 70.5 h was 44%. Turning to `CS(=O)(=O)CCn1ccc(NC(=O)CCc2cccc(F)c2)n1`, the cytotoxicity at 70.5 h was -3.41%.

On to `O=C(c1ccccc1)N1CCO[C@@H]2CN(c3ncccn3)C[C@@H]2C1`, for which the cytotoxicity at 70.5 h was -6.94%. Regarding `CC(C)c1nccn1Cc1cc(C(=O)NCC(F)(F)F)n[nH]1`, the cytotoxicity at 70.5 h is -9.18%. Take `O=C(c1ccn(COc2ccc(F)cc2)n1)N1CCCC1`: the cytotoxicity at 70.5 h was -7.86%. `Cc1c(C(=O)NCCC(=O)N2CCCC2)cccc1-c1ccccn1`: the cytotoxicity at 70.5 h was -17.7%. With `Cc1nnc(CNC(=O)CC2CCc3ccccc32)o1` (centres undefined) the figure was 25.8%; with `C[C@H](c1ccc(F)cc1)n1c(C2CCC2)n[nH]c1=O`, -12.6%; with `CC(O)C1CCN(c2cc(Cl)ccc2C#N)CC1` (centres undefined), -14.2%. Turning to `O=C1NCCN2CCN(C(=O)NCCc3ccccc3)CC12` (centres undefined), the cytotoxicity at 70.5 h is -9.06%.

`O=C1CC(c2cccs2)c2cnn(C3CCCC3)c2N1` (centres undefined): the cytotoxicity at 70.5 h worked out at 6.7%. As to `Cc1cn2c(n1)CCC(NC(=O)c1ccc(CS(C)(=O)=O)cc1)C2` (centres undefined), the cytotoxicity at 70.5 h was -1.89%.

As to `CC(=O)N1CCC(N2CCOC[C@H]2c2nc(-c3cccnc3)c[nH]2)CC1`, the cytotoxicity at 70.5 h was found to be 17.9%. For `O=C(NC1CC1)N1CC[C@H]2[C@H]1CCN2c1ncccn1`, the cytotoxicity at 70.5 h was -6.35%.

`Cc1ncsc1C(=O)NC1CCN(CCC(N)=O)CC1`: the cytotoxicity at 70.5 h is -21.4%. On to `CCS(=O)(=O)N1CCC2(CC(=O)N(c3cccc(C)c3)C2)C1` (centres undefined), for which the cytotoxicity at 70.5 h was -4.67%.

In the case of `CC(=O)N1CCN(C(=O)NCCCc2cn[nH]c2C)CC1`, the cytotoxicity at 70.5 h is -14.4%. With `CC1CN(Cc2noc(C3CC3)n2)CCN1Cc1nccn1C` (centres undefined), the cytotoxicity at 70.5 h was 4.66%. As for `Cc1cccc(OC2CCN(c3ccc(C#N)cn3)CC2)n1`, the cytotoxicity at 70.5 h is -1.77%. `N#Cc1ccc(F)cc1Cn1cnc(C2CCC2)cc1=O`: the cytotoxicity at 70.5 h was -9.04%.

On to `Cn1ccnc1CNc1nccc(-c2ncnn2C)n1`, for which the cytotoxicity at 70.5 h was -14.8%. Take `COc1ccc(CN2CCOC3(CCCN(c4nnc(C)o4)C3)C2)cc1` (centres undefined): the cytotoxicity at 70.5 h was -2.27%. For `CN(C)C[C@H]1OC[C@@H]2CCN(S(=O)(=O)c3cccs3)C[C@@H]21`, the cytotoxicity at 70.5 h is 12.4%. Take `O=C(CS(=O)(=O)Cc1ccc(Br)cc1F)Nc1cn[nH]c1`: the cytotoxicity at 70.5 h worked out at 4.02%. For `Cc1cnc2c(c1NCc1ccc3c(c1)OCO3)c(=O)n(C)c(=O)n2C`, the cytotoxicity at 70.5 h turned out to be 46.5%. On to `CC(C)N1CCC(C(=O)N2CCc3c(nc(CC4CC4)[nH]c3=O)C2)CC1`, for which the cytotoxicity at 70.5 h is -7.62%. With `COCC1c2c(cnn2C)CCN1Cc1ccsc1` (centres undefined) the figure was -22.9%; with `FC1(F)CCN(Cc2cccnc2)CC12CCN(c1ccccc1)C2` (centres undefined), -1.56%; with `CCn1ncc(CN2CCCC(n3c(=O)oc4ccccc43)C2)c1C` (centres undefined), -3.68%.

For the origin of these results see ChEMBL document CHEMBL3507680, “University of Dundee, Gates Library screen for HepG2 cell viability”.
